Assay results taken from patent US9556130B2, “4-oxo-3,4-dihydro-1,2,3-benzotriazine modulators of GPR139” (Takeda Pharmaceutical Company Limited, priority 2014, dated 2017).

Experiments:
human GPR139 receptor [1] = target: T1, human GPR139 receptor (Homo sapiens (Human), UniProt Q6DWJ6); experiment: GPR139 Competition Binding; conditions: stably transfected CHO-TRex membranes, 1 nM 3H radioligand; read-out: GPR139 Inhibition (Ki (nM));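 note: receptor expression induced with doxycycline before membrane preparation, bound radioactivity counted by scintillation, Ki fitted with a four-parameter logistic model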
human GPR139 receptor [2] = target: T1, human GPR139 receptor; experiment: Activation of Calcium Signaling of GPR139 In Vitro Assay; assay type: cell-based; conditions: stably transfected CHO-TRex cells, Calcium 5 dye, FLIPR Tetra;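 note: receptor expression induced with doxycycline, calcium fluorescence read continuously for one minute after compound addition, EC50 taken from a four-parameter logistic fit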

T1 sequence (Q6DWJ6 whole entry): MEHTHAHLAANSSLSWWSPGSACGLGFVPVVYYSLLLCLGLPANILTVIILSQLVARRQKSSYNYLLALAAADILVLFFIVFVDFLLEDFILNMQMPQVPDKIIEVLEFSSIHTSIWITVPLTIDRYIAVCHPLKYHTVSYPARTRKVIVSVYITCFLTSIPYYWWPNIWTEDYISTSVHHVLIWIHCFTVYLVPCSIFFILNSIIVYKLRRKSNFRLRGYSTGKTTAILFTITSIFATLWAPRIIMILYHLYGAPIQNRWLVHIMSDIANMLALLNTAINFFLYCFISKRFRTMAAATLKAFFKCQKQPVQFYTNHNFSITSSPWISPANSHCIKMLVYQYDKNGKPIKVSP

Compound	Ki (human GPR139 receptor [1])	EC50 (human GPR139 receptor [2])
Cc1ccc([C@H](C)NC(=O)Cn2nnc3c(F)cccc3c2=O)cc1 [Example 16, (S)-2-(8-fluoro-4-oxobenzo[d][1,2,3]triazin-3(4H)-yl)-N-(1-p-tolylethyl)acetamide]	708 nM	9 nM
COc1ccc([C@H](C)NC(=O)Cn2nnc3c(F)cccc3c2=O)cc1 [Example 17, (S)-2-(8-fluoro-4-oxobenzo[d][1,2,3]triazin-3(4H)-yl)-N-(1-(4-methoxyphenyl)ethyl)acetamide]	3600 nM	27 nM
Cc1ccc([C@H](C)NC(=O)Cn2nnc3cc(Cl)ccc3c2=O)cc1 [Example 21, (S)-2-(7-chloro-4-oxobenzo[d][1,2,3]triazin-3(4H)-yl)-N-(1-p-tolylethyl)acetamide]	173 nM	17 nM
Cc1ccc([C@H](C)NC(=O)Cn2nnc3c(Cl)cccc3c2=O)cc1 [Example 22, (S)-2-(8-chloro-4-oxobenzo[d][1,2,3]triazin-3(4H)-yl)-N-(1-p-tolylethyl)acetamide]	110 nM	7 nM
COc1ccc([C@H](C)NC(=O)Cn2nnc3c(Cl)cccc3c2=O)cc1 [Example 23, (S)-2-(8-chloro-4-oxobenzo[d][1,2,3]triazin-3(4H)-yl)-N-(1-(4-methoxyphenyl)ethyl)acetamide]	842 nM	13 nM
Cc1ccc([C@H](C)NC(=O)Cn2nnc3c(C)cccc3c2=O)cc1 [Example 24, (S)-2-(8-methyl-4-oxobenzo[d][1,2,3]triazin-3(4H)-yl)-N-(1-p-tolylethyl)acetamide]	72 nM	9 nM
COc1ccc([C@H](C)NC(=O)Cn2nnc3c(C)cccc3c2=O)cc1 [Example 25, (S)—N-(1-(4-methoxyphenyl)ethyl)-2-(8-methyl-4-oxobenzo[d][1,2,3]triazin-3 (4H)-yl)acetamide]	526 nM	8 nM
Cc1ccc([C@H](C)NC(=O)Cn2nnc3c(Cl)cc(Cl)cc3c2=O)cc1 [Example 26, (S)-2-(6,8-dichloro-4-oxobenzo[d][1,2,3]triazin-3(4H)-yl)-N-(1-p-tolylethyl)acetamide]	26 nM	16 nM
COc1ccc([C@H](C)NC(=O)Cn2nnc3c(Cl)cc(Cl)cc3c2=O)cc1 [Example 27, (S)-2-(6,8-dichloro-4-oxobenzo[d][1,2,3]triazin-3(4H)-yl)-N-(1-(4-methoxyphenyl)ethyl)acetamide]	190 nM	7 nM
COc1ccc([C@H](C)NC(=O)Cn2nnc3ccc(C)cc3c2=O)cc1 [Example 29, (S)—N-(1-(4-methoxyphenyl)ethyl)-2-(6-methyl-4-oxobenzo[d][1,2,3]triazin-3(4H)-yl)acetamide]		19 nM
COc1ccc([C@H](C)NC(=O)Cn2nnc3c(OC)cccc3c2=O)cc1 [Example 31, (S)-2-(8-methoxy-4-oxobenzo[d][1,2,3]triazin-3 (4H)-yl)-N-(1-(4-methoxyphenyl)ethyl)acetamide]		39 nM
Cc1ccc([C@H](C)NC(=O)Cn2nnc3cccc(F)c3c2=O)cc1 [Example 32, (S)-2-(5-fluoro-4-oxobenzo[d][1,2,3]triazin-3(4H)-yl)-N-(1-p-tolylethyl)acetamide]	459 nM	16 nM
COc1ccc([C@H](C)NC(=O)Cn2nnc3cccc(F)c3c2=O)cc1 [Example 33, (S)-2-(5-fluoro-4-oxobenzo[d][1,2,3]triazin-3(4H)-yl)-N-(1-(4-methoxyphenyl)ethyl)acetamide]	4850 nM	41 nM
Cc1ccc([C@H](C)NC(=O)Cn2nnc3cc(C)ccc3c2=O)cc1 [Example 34, (S)-2-(7-methyl-4-oxobenzo[d][1,2,3]triazin-3(4H)-yl)-N-(1-p-tolylethyl)acetamide]	347 nM	7 nM
COc1ccc([C@H](C)NC(=O)Cn2nnc3cc(C)ccc3c2=O)cc1 [Example 35, (S)—N-(1-(4-methoxyphenyl)ethyl)-2-(7-methyl-4-oxobenzo[d][1,2,3]triazin-3(4H)-yl)acetamide]	1520 nM	42 nM
COc1ccc([C@H](C)NC(=O)Cn2nnc3cccc(OC)c3c2=O)cc1 [Example 38, (S)-2-(5-methoxy-4-oxobenzo[d][1,2,3]triazin-3 (4H)-yl)-N-(1-(4-methoxyphenyl)ethyl)acetamide]	619 nM	26 nM
Cc1ccc([C@H](C)NC(=O)Cn2nnc3cccc(C)c3c2=O)cc1 [Example 39, (S)-2-(5-methyl-4-oxobenzo[d][1,2,3]triazin-3 (4H)-yl)-N-(1-p-tolylethyl)acetamide]	92 nM	6 nM
COc1ccc([C@H](C)NC(=O)Cn2nnc3cccc(C)c3c2=O)cc1 [Example 40, (S)—N-(1-(4-methoxyphenyl)ethyl)-2-(5-methyl-4-oxobenzo[d][1,2,3]triazin-3(4H)-yl)acetamide]	533 nM	9 nM

Compound	Ki (human GPR139 receptor [1])	EC50 (human GPR139 receptor [2])
Cc1ccc([C@H](C)NC(=O)Cn2nnc3c(C)cc(C)cc3c2=O)cc1 [Example 41, (S)-2-(6,8-dimethyl-4-oxobenzo[d][1,2,3]triazin-3(4H)-yl)-N-(1-p-tolylethyl)acetamide]	10 nM	7 nM
COc1ccc([C@H](C)NC(=O)Cn2nnc3c(C)cc(C)cc3c2=O)cc1 [Example 42, (S)-2-(6,8-dimethyl-4-oxobenzo[d][1,2,3]triazin-3(4H)-yl)-N-(1-(4-methoxyphenyl)ethyl)acetamide]	179 nM	37 nM
C[C@H](NC(=O)Cn1nnc2ccccc2c1=O)c1ccc(F)cc1Cl [Example 47, (S)—N-(1-(2-chloro-4-fluorophenyl)ethyl)-2-(4-oxobenzo[d][1,2,3]triazin-3(4H)-yl)acetamide]		14 nM
C[C@H](NC(=O)Cn1nnc2ccccc2c1=O)c1ccc(F)cc1Br [Example 48, (S)—N-(1-(2-bromo-4-fluorophenyl)ethyl)-2-(4-oxobenzo[d][1,2,3]triazin-3(4H)-yl)acetamide]		1510 nM
COc1cc(C)ccc1[C@H](C)NC(=O)[C@H](C)n1nnc2ccccc2c1=O [Example 50, (S)—N—((S)-1-(2-methoxy-4-methylphenyl)ethyl)-2-(4-oxobenzo[d][1,2,3]triazin-3(4H)-yl)propanamide]		52 nM
COc1cc(C)ccc1[C@H](C)NC(=O)[C@@H](C)n1nnc2ccccc2c1=O [Example 51, (R)—N—((S)-1-(2-methoxy-4-methylphenyl)ethyl)-2-(4-oxobenzo[d][1,2,3]triazin-3(4H)-yl)propanamide]		16 nM
Cc1ccc([C@H](C)NC(=O)Cn2nnc3ccc(F)cc3c2=O)c(C)c1 [Example 52, (S)—N-(1-(2,4-dimethylphenyl)ethyl)-2-(6-fluoro-4-oxobenzo[d][1,2,3]triazin-3(4H)-yl)acetamide]	39 nM	24 nM
C[C@H](NC(=O)Cn1nnc2ccc(F)cc2c1=O)c1ccc(OC(F)(F)F)cc1 [Example 55, (S)-2-(6-fluoro-4-oxobenzo[d][1,2,3]triazin-3(4H)-yl)-N-(1-(4-(trifluoromethoxy)phenyl)ethyl)acetamide]	42 nM	38 nM
COc1ccc2c(=O)n(CC(=O)N[C@@H](C)c3ccc(OC(F)(F)F)cc3)nnc2c1 [Example 56, (S)-2-(7-methoxy-4-oxobenzo[d][1,2,3]triazin-3(4H)-yl)-N-(1-(4-(trifluoromethoxy)phenyl)ethyl)acetamide]	218 nM	37 nM
COc1ccc2nnn(CC(=O)N[C@@H](C)c3ccc(OC(F)(F)F)cc3)c(=O)c2c1 [Example 57, (S)-2-(6-methoxy-4-oxobenzo[d][1,2,3]triazin-3(4H)-yl)-N-(1-(4-(trifluoromethoxy)phenyl)ethyl)acetamide]	128 nM	43 nM
COc1ccc2nnn(CC(=O)N[C@@H](C)c3ccc(C(F)(F)F)cc3)c(=O)c2c1 [Example 60, (S)-2-(6-methoxy-4-oxobenzo[d][1,2,3]triazin-3(4H)-yl)-N-(1-(4-(trifluoromethyl)phenyl)ethyl)acetamide]	115 nM	18 nM
COc1cccc2nnn(CC(=O)N[C@@H](C)c3ccc(C(F)(F)F)cc3)c(=O)c12 [Example 61, (S)-2-(5-methoxy-4-oxobenzo[d][1,2,3]triazin-3 (4H)-yl)-N-(1-(4-(trifluoromethyl)phenyl)ethyl)acetamide]	26 nM	15 nM
COc1cccc2c(=O)n(CC(=O)N[C@@H](C)c3ccc(OC(F)(F)F)cc3)nnc12 [Example 62, (S)-2-(8-methoxy-4-oxobenzo[d][1,2,3]triazin-3(4H)-yl)-N-(1-(4-(trifluoromethoxy)phenyl)ethyl)acetamide]	240 nM	25 nM
COc1cccc2c(=O)n(CC(=O)N[C@@H](C)c3ccc(C(F)(F)F)cc3)nnc12 [Example 63, (S)-2-(8-methoxy-4-oxobenzo[d][1,2,3]triazin-3 (4H)-yl)-N-(1-(4-(trifluoromethyl)phenyl)ethyl)acetamide]	352 nM	50 nM
C[C@H](NC(=O)Cn1nnc2ccc(F)cc2c1=O)c1ccc(C(F)(F)F)cc1 [Example 64, (S)-2-(6-fluoro-4-oxobenzo[d][1,2,3]triazin-3(4H)-yl)-N-(1-(4-(trifluoromethyl)phenyl)ethyl)acetamide]	106 nM	13 nM
C[C@H](NC(=O)Cn1nnc2ccc(F)cc2c1=O)c1ccc(OC(F)F)cc1 [Example 68, (S)—N-(1-(4-(difluoromethoxy)phenyl)ethyl)-2-(6-fluoro-4-oxobenzo[d][1,2,3]triazin-3(4H)-yl)acetamide]	282 nM	10 nM
C[C@H](NC(=O)Cn1nnc2ccc(F)cc2c1=O)c1ccc(OC(F)(F)F)cc1F [Example 71, (S)—N-(1-(2-fluoro-4-(trifluoromethoxy)phenyl)ethyl)-2-(6-fluoro-4-oxobenzo[d][1,2,3]triazin-3(4H)-yl)acetamide]		49 nM
COc1ccc(CCN(C)C(=O)Cn2nnc3ccccc3c2=O)cc1 [Example 78, N-(4-methoxyphenethyl)-N-methyl-2-(4-oxobenzo[d][1,2,3]triazin-3(4H)-yl)acetamide]		80 nM
